Test results taken from patent publication US6620828B2, “Thiazole compounds and pharmaceutical compositions for inhibiting protein kinases and methods for their use” (Agouron Pharmaceuticals, Inc., priority 1999, dated 2003).
One block for each compound: values may come before it.

How the values were obtained:
Format in all cases: biochemical
[1] = target: T1, CDK4/Cyclin D3 complex (Homo sapiens, UniProt P11802); experiment: CDK4/Cyclin D assay; conditions: for inhibition at 100 µM: at 100 (printed 100 or 100 μM)
T1 construct: made in house; host or cells: insect cells co-infected with baculovirus vectors
Protocol: CDK4/Cyclin D Construct for Assay: A complex of human CDK4 and cyclin D3, or a complex of cyclin DI and a fusion protein of human CDK4 and glutathione-S-transferase (GST-CDK4), was purified using traditional biochemical chromatographic techniques from insect cells that had been co-infected with the corresponding baculovirus expression vectors.
(§1) CDK2/Cyclin A and CDK4/Cyclin D Assays
(§2) Cyclin-dependent kinase activity was measured by quantifying the enzyme-catalyzed, time-dependent incorporation of radioactive phosphate from [^32P]ATP into a recombinant fragment of the retinoblastoma protein. Unless noted otherwise, assays were performed in 96-well plates in a total volume of 50 μL, in the presence of 10 mM HEPES (N-[2-hydroxyethyl]piperazine-N′-[2-ethanesulfonic acid]) (pH 7.4), 10 mM MgCl2, 25 μM adenosine triphosphate (ATP), 1 mg/mL ovalbumin, 5 μg/mL leupeptin, 1 mM dithiothreitol, 10 mM β-glycerophosphate, 0.1 mM sodium vanadate, 1 mM sodium fluoride, 2.5 mM ethylene glycol-bis(β-aminoethyl ether)-N,N,N′N′-tetraacetic acid (EGTA), 2% (v/v) dimethylsulfoxide, and 0.03-0.2 μCi [^32P]ATP. The substrate (0.3-0.5 μg) was purified recombinant retinoblastoma protein fragment (Rb) (residues 386-928 of the native retinoblastoma protein; 62.3 kDa, containing the majority of the phosphorylation sites found in the native 106-kDa protein, as well as a tag of six histidine residues for ease of purification). Reactions were initiated with CDK2 (150 nM CDK2/Cyclin A complex) or CDK4 (50 nM CDK4/Cyclin D3 complex), incubated at 30° C., and terminated after 20 minutes by the addition of ethylenediaminetetraacetic acid EDTA) to 250 mM. The phosphorylated substrate was then captured on a nitrocellulose membrane using a 96-well filtration manifold, and unincorporated radioactivity was removed by repeated washing with 0.85% phosphoric acid. Radioactivity was quantified by exposing the dried nitrocellulose membranes to a phosphorimager. Apparent Ki values were measured by assaying enzyme activity in the presence of different compound concentrations and subtracting the background radioactivity measured in the absence of enzyme. The kinetic parameters (kcat, Km for ATP) were measured for each enzyme under the usual assay conditions by determining the dependence of initial rates on ATP concentration. The data were fit to an equation for competitive inhibition using Kaleidagraph (Synergy Software), or were fit to an equation for competitive tight-binding inhibition using the software KineTic (BioKin, Ltd.). Measured Ki values for known inhibitors against CDK4 and CDK2 agreed with published IC50 values. The specific activity of CDK4 was the same whether complexed to full-length cyclin D3 or the truncated Cyclin D3 construct; both complexes also yielded very similar Ki values for selected inhibitors.

[2] = target: CDK2/Cyclin A complex (Homo sapiens, UniProt P24941); experiment: CDK2/Cyclin A assay
Excerpt: CDK2/Cyclin A Construct for Assay: CDK2 was purified using published methodology (Rosenblatt et al., J. Mol. Biol., 230, 1317-1319 (1993)) from insect cells that had been infected with a baculovirus expression vector. Cyclin A was purified from E. coli cells expressing full-length recombinant cyclin A, and a truncated cyclin A construct was generated by limited proteolysis and purified as described previously (Jeffrey et al., Nature, 376, 313-320 (Jul. 27, 1995)).
as §1, §2

[3] = target: T2, phosphorylated VEGF-R2Δ50 (FLVK-P) (Homo sapiens, UniProt P35968, DEL940-989/E990V); experiment: VEGF-R2 coupled spectrophotometric (FLVK-P) assay; conditions: Table 3; at 1 μM
T2 construct: VEGF-R2Δ50 contains residues 806-939 and 990-1171; made in house; host or cells: baculovirus/insect cells
Excerpt: VEGF-R2 Construct for Assay: This construct determines the ability of a test compound to inhibit tyrosine kinase activity. A construct (VEGF-R2Δ50) of the cytosolic domain of human vascular endothelial growth factor receptor 2 (VEGF-R2) lacking the 50 central residues of the 68 residues of the kinase insert domain was expressed in a baculovirus/insect cell system. Of the 1356 residues of full-length VEGF-R2, VEGF-R2Δ50 contains residues 806-939 and 990-1171, and also one point mutation (E990V) within the kinase insert domain relative to wild-type VEGF-R2. Autophosphorylation of the purified construct was performed by incubation of the enzyme at a concentration of 4 μM in the presence of 3 mM ATP and 40 mM MgCl2 in 100 mM Hepes, pH 7.5, containing 5% glycerol and 5 mM DTT, at 4° C. for 2 h. […] See Parast et al., Biochemistry, 37, 16788-16801 (1998).
Coupled Spectrophotometric (FLVK-P) Assay
The production of ADP from ATP that accompanies phosphoryl transfer was coupled to oxidation of NADH using phosphoenolpyruvate (PEP) and a system having pyruvate kinase (PK) and lactic dehydrogenase (LDH). The oxidation of NADH was monitored by following the decrease of absorbance at 340 nm (e340=6.22 cm^−1 mM^−1) using a Beckman DU 650 spectrophotometer. Assay conditions for phosphorylated VEGF-R2Δ50 (indicated as FLVK-P in the tables below) were the following: 1 mM PEP; 250 μM NADH; 50 units of LDH/mL; 20 units of PK/mL; 5 mM DTT; 5.1 mM poly(E4Y1); 1 mM ATP; and 25 mM MgCl2 in 200 mM Hepes, pH 7.5. Assay conditions for unphosphorylated VEGF-R2Δ50 (indicated as FLVK in the tables) were the following: 1 mM PEP; 250 μM NADH; 50 units of LDH/mL; 20 units of PK/mL; 5 mM DTT; 20 mM poly(E4Y1); 3 mM ATP; and 60 mM MgCl2 and 2 mM MnCl2 in 200 mM Hepes, pH 7.5. Assays were initiated with 5 to 40 nM of enzyme. Ki values were determined by measuring enzyme activity in the presence of varying concentrations of test compounds. The data were analyzed using Enzyme Kinetic and Kaleidagraph software.

[4] = target: T3, FL-CHK1 (Homo sapiens, UniProt O14757); experiment: CHK1 assay; conditions: Table 3; at 25 μM
T3 construct: C-terminally His-tagged full-length human CHK1 (FL-CHK1); 6xHis (C); made in house; host or cells: baculovirus/insect cells
T3 sequence (O14757 1-476): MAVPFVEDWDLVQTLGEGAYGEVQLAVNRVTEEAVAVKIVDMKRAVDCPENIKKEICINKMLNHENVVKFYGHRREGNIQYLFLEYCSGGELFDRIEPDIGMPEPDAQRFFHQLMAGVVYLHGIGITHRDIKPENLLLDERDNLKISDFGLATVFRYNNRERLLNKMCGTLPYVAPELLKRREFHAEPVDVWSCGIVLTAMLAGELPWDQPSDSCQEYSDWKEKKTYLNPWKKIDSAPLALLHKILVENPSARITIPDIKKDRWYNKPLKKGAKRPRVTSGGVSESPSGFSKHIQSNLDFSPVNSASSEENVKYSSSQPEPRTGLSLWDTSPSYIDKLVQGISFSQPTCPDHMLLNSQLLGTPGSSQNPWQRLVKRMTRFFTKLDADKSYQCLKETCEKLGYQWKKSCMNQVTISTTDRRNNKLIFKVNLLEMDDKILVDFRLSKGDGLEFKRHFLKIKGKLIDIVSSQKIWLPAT
Excerpt: CHK-1 Construct for Assay: C-terminally His-tagged full-length human CHK1 (FL-CHK1) was expressed using the baculovirus/insect cell system. It contains 6 histidine residues (6×His-tag) at the C-terminus of the 476 amino acid human CHK1. The protein was purified by conventional chromatographic techniques.
The production of ADP from ATP that accompanies phosphoryl transfer to the synthetic substrate peptide Syntide-2 ([…]) was coupled to oxidation of NADH using phosphoenolpyruvate (PEP) through the actions of pyruvate kinase (PK) and lactic dehydrogenase (LDH). The oxidation of NADH was monitored by following the decrease of absorbance at 340 nm (ε340=6.22 cm^−1 mM^−1) using a HP8452 spectrophotometer. Typical reaction solutions contained: […]; 0.15 mM NADH; 28 units of LDH/ml; 16 units of PK/ml; 3 mM DTT; 0.125 mM Syntide-2; 0.15 mM ATP; 25 mM MgCl2 in 50 mM TRIS, pH 7.5; and 400 mM NaCl. Assays were initiated with 10 nM of FL-CHK1. Ki values were determined by measuring initial enzyme activity in the presence of varying concentrations of test compounds. The data were analyzed using Enzyme Kinetic and Kaleidagraph software.

T1 sequence (P11802 whole entry): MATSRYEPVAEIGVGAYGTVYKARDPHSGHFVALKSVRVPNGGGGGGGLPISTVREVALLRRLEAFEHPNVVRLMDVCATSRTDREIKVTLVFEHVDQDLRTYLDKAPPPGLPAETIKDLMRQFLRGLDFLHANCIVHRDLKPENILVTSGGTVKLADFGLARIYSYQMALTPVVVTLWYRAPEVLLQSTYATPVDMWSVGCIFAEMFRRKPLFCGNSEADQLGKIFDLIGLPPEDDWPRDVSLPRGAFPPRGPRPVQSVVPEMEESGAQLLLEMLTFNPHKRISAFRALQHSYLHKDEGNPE
T1 sequence (P30281 whole entry partner): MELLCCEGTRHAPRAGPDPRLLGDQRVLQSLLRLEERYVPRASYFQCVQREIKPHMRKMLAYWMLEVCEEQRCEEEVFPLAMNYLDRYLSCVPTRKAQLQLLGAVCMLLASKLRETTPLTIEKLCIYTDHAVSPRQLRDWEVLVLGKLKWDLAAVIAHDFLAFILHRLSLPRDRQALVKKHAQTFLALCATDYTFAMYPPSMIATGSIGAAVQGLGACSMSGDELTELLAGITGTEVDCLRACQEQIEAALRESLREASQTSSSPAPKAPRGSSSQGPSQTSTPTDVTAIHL
T2 sequence (P35968 with tags, fused parts or gaps DEL940-989/E990V limits assumed): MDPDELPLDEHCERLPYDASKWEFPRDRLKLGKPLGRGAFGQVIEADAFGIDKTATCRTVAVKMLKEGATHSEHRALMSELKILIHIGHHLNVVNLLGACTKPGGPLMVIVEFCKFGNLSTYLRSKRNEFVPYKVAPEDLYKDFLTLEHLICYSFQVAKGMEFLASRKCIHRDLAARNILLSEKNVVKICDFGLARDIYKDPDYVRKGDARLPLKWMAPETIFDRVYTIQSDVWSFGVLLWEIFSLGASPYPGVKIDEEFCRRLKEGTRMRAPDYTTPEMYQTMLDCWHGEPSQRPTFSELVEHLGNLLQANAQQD

SMILES: CCOC(=O)c1ccc(-c2csc(-c3sc(Nc4cc(OC)c(OC)c(OC)c4)nc3N)n2)cc1 [A(11), 4-[4′-Amino-2′-(3,4,5-trimethoxy-phenylamino)-[2,5′]bithiazolyl-4-yl]-benzoic acid ethyl ester]
inhibition at 100 µM ([1]; Table 2): 33%

SMILES: CN(C)CCNS(=O)(=O)c1ccc(Nc2nc(N)c(-c3nc(C(=O)c4ccccc4)cs3)s2)cc1 [A(71), 4-(4′-Amino-4-benzoyl-[2,5′]bithiazolyl-2′-ylamino)-N-(2-dimethylamino-ethyl)-benzenesulfonamide]
Ki ([2]; Table 2): 29000 nM
Ki ([1]; Table 2): 190000 nM

SMILES: Nc1cccc(C(=O)c2csc(-c3sc(Nc4ccc(S(N)(=O)=O)cc4)nc3N)n2)c1 [A(72), 4-[4-Amino-4-(3-amino-benzoyl)-[2,5′]bithiazoyl-2′-ylamino]-benzenesulfonamide]
Ki ([2]; Table 2): 160 nM
inhibition at 5 µM ([1]; Table 2): 48%

SMILES: Nc1cccc(-c2csc(-c3sc(Nc4ccc(S(N)(=O)=O)cc4)nc3N)n2)c1 [C(3)]
Ki ([2]; Table 2): 2700 nM
Ki ([1]; Table 2): 4600 nM

SMILES: Nc1nc(N)c(-c2nc(C(=O)c3ccccc3)cs2)s1 [E(4), (2′,4′-Diamino-[2,5′]bithiazolyl-4-yl)-phenyl-methanone]
Ki ([2]; Table 2): 8800 nM
Ki ([1]; Table 2): 21000 nM

SMILES: CC(=O)Nc1nc(N)c(-c2nc(C(=O)c3ccccc3)cs2)s1 [F(16), N-(4′-Amino-4-benzoyl-[2,5′]bithiazolyl-2′-yl)-acetamide]
Ki ([2]; Table 3): 480 nM
inhibition at 5 µM ([1]; Table 3): 35%

SMILES: COc1cc(Nc2nc(N)c(-c3cccc(Br)n3)s2)cc(OC)c1OC [G(6), 5-(6-Bromo-pyridin-2-yl)-2-N-(3,4,5-trimethoxy-phenyl)-thiazole-2,4-diamine]
Ki ([1]; Table 2): 100000 nM

SMILES: Nc1nc(Nc2ccc(S(N)(=O)=O)cc2)sc1-c1nccn1Cc1ccc(Cl)cc1 [G(8), 4-{4-Amino-5-[1-(4-chloro-benzyl)-1H-imidazol-2-yl]-thiazol-2-ylamino}-benzenesulfonamide]
Ki ([2]; Table 2): 18000 nM
inhibition at 100 µM ([1]; Table 2): 31%

The remaining lines, values ahead:

Ki ([2]; Table 2): 10400 nM
Ki ([1]; Table 2): 11000 nM
SMILES: Nc1nc(Nc2ccc(S(N)(=O)=O)cc2)sc1-c1nc(O)c(-c2ccc(O)cc2)s1 [H(2), 4-[4′-Amino-4-hydroxy-5-(4-hydroxy-phenyl)-[2,5′]bithiazolyl-2′-yl-amino]-benzenesulfonamide]

Ki ([2]; Table 2): 2600 nM
Ki ([1]; Table 2): 2100 nM
SMILES: Nc1nc(Nc2ccc(S(N)(=O)=O)cc2)sc1-c1nc(O)c(-c2ccccc2O)s1 [H(4), 4-[4′-Amino-4-hydroxy-5-(2-hydroxy-phenyl)-[2,5′]bithiazoly-2′-ylamino]-benzenesulfonamide]

CDK2 % inhibition @ 100 ([2]; Table 2, at 100 (printed 100 or 100 μM)): 29% @
inhibition at 100 µM ([1]; Table 2): < 0%
SMILES: Nc1nc(Nc2ccc(S(N)(=O)=O)cc2)sc1C1=NC2(O)OCCC2S1 (stereo not shown) [H(5), 4-[4′-Amino-4-hydroxy-5-(2-hydroxy-ethyl)-3′H-1′-[2,5]bithiazolyl-2′-ylamino]-benzenesulfonamide]

Ki ([2]; Table 2): 200 nM
Ki ([1]; Table 2): 1200 nM
SMILES: Nc1csc(-c2sc(Nc3ccc(S(N)(=O)=O)cc3)nc2N)n1 [H(6), 4-(4,4′-Diamino-[2,5′]bithiazolyl-2′-ylamino)-benzenesulfonamide]

inhibition at 100 µM ([1]; Table 2): < 0%
SMILES: COc1cc(Nc2nc(N)c(C3=N[C@H](Cc4ccccc4)CO3)s2)cc(OC)c1OC [I(2), R-5-(4-Benzyl-4,5-dihydro-oxazol-2-yl)-N^2-(3,4,5-trimethoxyl-phenyl)-thiazole-2,4-diamine]

inhibition at 100 µM ([1]; Table 2): < 0%
SMILES: COc1cc(Nc2nc(N)c(C3=NC(C(C)OCc4ccccc4)CO3)s2)cc(OC)c1OC [I(4), 5-{(4R)-[(1R)-Benzyloxy-ethyl]-4,5-dihydro-oxazol-2-yl}-N^2-(3,4,5-trimethoxyl-phenyl)-thiazole-2,4-diamine]

Ki ([2]; Table 3): 2700 nM
inhibition at 1 µM [3]: 24%
inhibition at 25 µM [4]: < 0%
SMILES: Nc1nc(Nc2ccc(S(N)(=O)=O)cc2)sc1-c1nc(C(=O)O)cs1 [N(1)]

Ki ([2]; Table 3): 120 nM
Ki ([1]; Table 3): 1300 nM
SMILES: CN(C)CCNC(=O)c1csc(-c2sc(Nc3ccc(S(N)(=O)=O)cc3)nc2N)n1 [N(2), 4-Amino-2′-(4-sulfamoyl-phenylamino)-[2,5′]-bithiazoyl-4-carboxylic acid (2-dimethylamino-ethyl)-amide]

Ki ([2]; Table 3): 158 nM
Ki ([1]; Table 3): 480 nM
SMILES: Nc1nc(Nc2ccc(S(N)(=O)=O)cc2)sc1-c1nc(C(=O)Nc2ccccc2)cs1 [N(4), 4′-Amino-2′-(4-sulfamoyl-phenylamino)-[2,5′]bithiazolyl-4 carboxylic acid phenylamide]
